{"source": "patent US20020103228A1", "about": "“Composition and method for use of pyridinium derivatives in cosmetic and therapeutic applications” (TORRENT PHARMACEUTICALS LTD., priority 1999, published 2002)", "key": {"[1]": {"molecular_target": "T1, AGE-BSA (Bos taurus, UniProt P02769)", "T1 construct": "Bovine serum albumin (fraction V) (BSA); from tissue; host or cells: bovine serum (fraction V); glycated in house with 1.6 M glucose at 37 °C for 16 weeks", "T1 sequence (P02769 25-607)": "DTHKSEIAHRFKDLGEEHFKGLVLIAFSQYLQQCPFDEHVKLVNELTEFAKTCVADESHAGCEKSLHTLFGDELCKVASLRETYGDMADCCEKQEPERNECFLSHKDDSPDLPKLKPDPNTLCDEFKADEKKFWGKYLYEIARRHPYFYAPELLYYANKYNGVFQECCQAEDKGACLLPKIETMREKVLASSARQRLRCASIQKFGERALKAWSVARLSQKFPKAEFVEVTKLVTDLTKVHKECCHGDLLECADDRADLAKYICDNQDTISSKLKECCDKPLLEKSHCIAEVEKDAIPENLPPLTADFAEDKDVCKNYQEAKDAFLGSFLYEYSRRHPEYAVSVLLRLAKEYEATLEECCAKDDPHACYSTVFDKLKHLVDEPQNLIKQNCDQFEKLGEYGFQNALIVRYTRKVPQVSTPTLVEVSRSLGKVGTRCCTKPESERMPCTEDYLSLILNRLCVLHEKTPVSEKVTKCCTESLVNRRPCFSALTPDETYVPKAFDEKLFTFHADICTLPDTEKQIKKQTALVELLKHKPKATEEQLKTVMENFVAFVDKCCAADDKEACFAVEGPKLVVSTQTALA", "experiment": "In-vitro AGE breaking activity by ELISA", "type": "biochemical, Bovine", "details": "37° C., 24 hours", "procedure": "AGE breaking activity has been confirmed by the screening procedure as mentioned below:\nMethods of experiment: Elisa (Enzyme Linked Immunosorbent Assay)\n160 mg/ml of protein, bovine serum albumin, BSA and 1.6M glucose sugar were dissolved in phosphate buffered saline, PBS. Sodium azide was added at 0.02% concentration as a preservative. The solution was filtered asceptically through a […] filter and kept for aging at 37° C. for 16 weeks. After 16 weeks the solution was dialyzed against PBS, aliquoted and stored at −20° C.\nTo determine the AGE breaking activity, 10 μg/ml of the 16 weeks AGE-BSA was incubated with different concentrations of the test compounds at 37° C. for 24 hours and AGE breaking activity of the test compounds by ELISA was determined.\nELISA was performed as follows\n1. Different concentrations of 16 weeks AGE-BSA were coated on a microtiter plate as standard. Each concentration is coated in triplicates.\n2. The test samples were coated on microtiter plate at a concentration of 5 ng to 20 ng per well in triplicates\n3. The plate was incubated at 37° C. for one hour.\n4. After incubation the plate was washed with PBST (PBS with 0.05% Tween 20).\n5. Blocking with 5% skimmed milk in PBS at 37° C. for one hour was done.\n6. The plate was washed with PBST.\n7. Primary antibody against AGE-BSA was added and the plate is incubated at 37° C. for one hour.\n8. The plate was washed with PBST\n9. Secondary antibody anti rabbit HRPO (Horse-Radish Per Oxidase) conjugate was added and the plate is incubated at 37° C. for one hour.\n10. The plate was washed with PBST.\n11. Colour development with OPD (orthophenylenediamine dihydrochloride) and hydrogen peroxide was done.\n12. OD (optical density) at (450 nm reading-620 nm reading) was measured after incubation at 37° C. for 15 minutes with Microplate ELISA Reader\nThe breaker activity of the compounds were determined by the following formula: [formula]\nOD450-620Control=Absorbance of 20 ng AGE-BSA after incubation at 37° C. for 24 hours without test compound\nOD450-620Test=Absorbance of 20 ng AGE-BSA after incubation at 37° C. for 24 hours with required concentration of test compound\nUsing specific examples, the % AGE breaking activity was calculated and recorded in Table 2."}, "[2]": {"experiment": "Free radical scavenging activity on ABTS radical cation", "type": "biochemical", "procedure": "This method measures the relative ability of free radical scavenging substances to scavenge the ABTS^.+ i.e. 2,2-Azino-bis-(3-ethyl benzo thiazoline-6-sulfonate) radical cation as compared to a standard amount of standard or free radical scavengers antioxidants. Incubation of ABTS with Peroxidase (metmyoglobin) and hydrogen peroxide results in the production of radical cation ABTS^.+. This species is blue-green in colour and can be detected at 730 nm. Antioxidants or free radical scavengers in the added sample that causes suppression of the color to a degree that is proportional to their concentration.\nPreparation of Buffer Solutions\nA. Phosphate Citrate Buffer (pH 5.0). 48.5 ml of 0.1M citric acid with sufficient 0.2M disodium hydrogen phosphate to produce 100 ml.\nB. Phosphate Buffer Saline (PBS): Dissolve 40.0 g of NaCl, 1.0 g of KCl, 1.0 g of KH2PO4 and 3.05 g of Na2HPO4 in 1 liter milli-Q water. Dilute 200 ml of above solution to 1 liter with milli-Q water (pH 7.4-7.6).\nC. 3 μM stock solution of Peroxidase was prepared in phosphate buffer saline pH 7.4(PBS).\nD. 1.08 mM stock solution of Hydrogen peroxide was prepared in phosphate buffer saline pH 7.4 (PBS).\nPreparation of ABTS Stock Solution\n1 tablet (10 mg) was dissolved in phosphate citrate buffer (pH 5.0).\nPreparation of ABTS Working Solution\n5.0 ml of ABTS stock solution was diluted with PBS to 20 ml.\nPreparation of Horse Radish Peroxidase Stock Solution\n320 μg of the enzyme was dissolved in 2.5 ml of PBS.\nPreparation of Hydrogen Peroxide (1.08 mM) Solution\n12 μl of Hydrogen Peroxide (30% w/v) was diluted to 100 ml with PBS. […]\nPreparation of ABTS Radical Stock Solution\nTo 18 ml of ABTS stock solution, 100 μl of Horseradish Peroxidase stock solution was added.\nAs soon as 1.5 ml of hydrogen peroxide solution was added to the above solution, blue-green colour of the ABTS radicals appeared. This solution was incubated at 30° C. for 30 min.\nPreparation of Control Solution\n980 μl of ABTS radical stock solution was added to an eppendorf tube. To it was added 100 μl of various PBS solution.\nPreparation of test Solution\n980 μl of ABTS radical stock solutions were added to different eppendorf tubes. To it were added 100 μl of various concentrations of drug solution.\nMeasurement of Absorbance (O.D)\nThe absorbance of control and test samples was recorded immediately at 730 nm taking PBS as blank.\nCalculation: The percent antioxidant activity was calculated according to the formula. % Antioxidant activity=[O.D of test sample/O.D of control*100]−100."}}, "note": "Several values for one entry are separate records, joined by “and”; a condition that tells them apart may be missing. Equal values may be shown once.", "data": [{"smiles": "CS(=O)(=O)NNC(=O)c1ccc[n+](CC(=O)c2cccs2)c1.[Cl-]", "note": "[Compound 45, 1-(2-thien-2′-yl-2-oxoethyl)-3-(methanesulfonyl hydrazinocarbonyl)pyridinium chloride]", "values": [{"measurement": "% Breakage", "setting": "[1]; 10 mM test compound", "result": 17.53, "unit": "%"}, {"measurement": "Relative Free Radical Scavenging Activity (%) on ABTS", "setting": "[2]; 11.5 μM", "result": 53.9, "unit": "%"}, {"measurement": "Relative Free Radical Scavenging Activity (%) on ABTS", "setting": "[2]; 23.0 μM", "result": 56.2, "unit": "%"}, {"measurement": "Relative Free Radical Scavenging Activity (%) on ABTS", "setting": "[2]; 46.0 μM", "result": 78.7, "unit": "%"}, {"measurement": "Relative Free Radical Scavenging Activity (%) on ABTS", "setting": "[2]; 92.5 μM", "result": 99.8, "unit": "%"}, {"measurement": "Relative Free Radical Scavenging Activity (%) on ABTS", "setting": "[2]; 925 μM", "result": 100, "unit": "%"}]}, {"smiles": "O=C(NNC(=O)c1ccc[n+](CC(=O)c2cc([N+](=O)[O-])cs2)c1)c1ccc[n+](CC(=O)c2cc([N+](=O)[O-])cs2)c1.[Cl-].[Cl-]", "note": "[Compound 56, N,N′-bis[3-carbonyl-1-(2-(4-nitrothien-2-yl)-2-oxoethyl)pyridinium]hydrazine dichloride]", "values": [{"measurement": "% Breakage", "setting": "[1]; 10 mM test compound", "result": 75.92, "unit": "%"}, {"measurement": "Relative Free Radical Scavenging Activity (%) on ABTS", "setting": "[2]; 11.5 μM", "result": 43.0, "unit": "%"}, {"measurement": "Relative Free Radical Scavenging Activity (%) on ABTS", "setting": "[2]; 23.0 μM", "result": 57.2, "unit": "%"}, {"measurement": "Relative Free Radical Scavenging Activity (%) on ABTS", "setting": "[2]; 46.0 μM", "result": 71.6, "unit": "%"}, {"measurement": "Relative Free Radical Scavenging Activity (%) on ABTS", "setting": "[2]; 92.5 μM", "result": 97.7, "unit": "%"}, {"measurement": "Relative Free Radical Scavenging Activity (%) on ABTS", "setting": "[2]; 925 μM", "result": 100, "unit": "%"}]}, {"smiles": "NC(=O)c1cc(C(=O)NNC(=O)c2ccc[n+](CC(=O)c3cccs3)c2)c[n+](CC(=O)c2cccs2)c1.[Cl-].[Cl-]", "note": "[Compound 60, 1-[1-(2-thien-2′-yl-2-oxoethyl)-5-aminocarbonyl-3-carbonylpyridinium]-2-[1-(2-Thien-2′-yl-2-oxoethyl)-3-carbonylpyridinium]hydrazine dichloride]", "values": [{"measurement": "% Breakage", "setting": "[1]; 1 mM test compound", "result": 95.36, "unit": "%"}, {"measurement": "Relative Free Radical Scavenging Activity (%) on ABTS", "setting": "[2]; 11.5 μM", "result": 44.1, "unit": "%"}, {"measurement": "Relative Free Radical Scavenging Activity (%) on ABTS", "setting": "[2]; 23.0 μM", "result": 59.8, "unit": "%"}, {"measurement": "Relative Free Radical Scavenging Activity (%) on ABTS", "setting": "[2]; 46.0 μM", "result": 69.4, "unit": "%"}, {"measurement": "Relative Free Radical Scavenging Activity (%) on ABTS", "setting": "[2]; 92.5 μM", "result": 99.9, "unit": "%"}, {"measurement": "Relative Free Radical Scavenging Activity (%) on ABTS", "setting": "[2]; 925 μM", "result": 100, "unit": "%"}]}, {"smiles": "CS(=O)(=O)NNC(=O)c1ccc[n+](CC(=O)c2cc([N+](=O)[O-])cs2)c1.[Br-]", "note": "[Compound 64, 1-(2-(4-nitrothien-2-yl)-2-oxoethyl)-3-(methanesulfonyl hydrazinocarbonyl)pyridinium bromide]", "values": [{"measurement": "% Breakage", "setting": "[1]; 10 mM test compound", "result": 60.94, "unit": "%"}, {"measurement": "Relative Free Radical Scavenging Activity (%) on ABTS", "setting": "[2]; 11.5 μM, listed as Compound No. 64, 11.5 µM", "result": "41.8% and 26.01%"}, {"measurement": "Relative Free Radical Scavenging Activity (%) on ABTS", "setting": "[2]; 23.0 μM, listed as Compound No. 64, 23 µM", "result": "55.7% and 57.39%"}, {"measurement": "Relative Free Radical Scavenging Activity (%) on ABTS", "setting": "[2]; 46.0 μM, listed as Compound No. 64, 46 µM", "result": "72.2% and 99.30%"}, {"measurement": "Relative Free Radical Scavenging Activity (%) on ABTS", "setting": "[2]; 92.5 μM, listed as Compound No. 64, 92.5 µM", "result": "99.0% and 99.62%"}, {"measurement": "Relative Free Radical Scavenging Activity (%) on ABTS", "setting": "[2]; 925 μM", "result": 100, "unit": "%"}]}, {"smiles": "COCCNC(=O)c1ccc[n+](CC(=O)c2ccc(Cl)cc2Cl)c1.[Br-]", "note": "[Compound 38, 1-(2′,4′-dichlorophenyl-2-oxoethyl)-3-(2-methoxyethylaminocarbonyl)-pyridinium bromide]", "values": [{"measurement": "% Breakage", "setting": "[1]; 5 mM test compound", "result": 17.66, "unit": "%"}, {"measurement": "Relative Free Radical Scavenging Activity (%) on ABTS", "setting": "[2]; 11.5 μM", "result": 47.2, "unit": "%"}, {"measurement": "Relative Free Radical Scavenging Activity (%) on ABTS", "setting": "[2]; 23.0 μM", "result": 54.8, "unit": "%"}, {"measurement": "Relative Free Radical Scavenging Activity (%) on ABTS", "setting": "[2]; 46.0 μM", "result": 71.0, "unit": "%"}, {"measurement": "Relative Free Radical Scavenging Activity (%) on ABTS", "setting": "[2]; 92.5 μM", "result": 89.5, "unit": "%"}, {"measurement": "Relative Free Radical Scavenging Activity (%) on ABTS", "setting": "[2]; 925 μM", "result": 100, "unit": "%"}]}, {"smiles": "O=C(NNS(=O)(=O)C(F)(F)F)c1ccc[n+](CC(=O)c2cccs2)c1.[Br-]", "note": "[Compound 68, 1-(2-thien-2′-yl-2-oxoethyl)-3-(trifluoromethanesulfonyl hydrazinocarbonyl)-pyridinium bromide]", "values": [{"measurement": "% Breakage", "setting": "[1]; 10 mM test compound", "result": 92.64, "unit": "%"}, {"measurement": "Relative Free Radical Scavenging Activity (%) on ABTS", "setting": "[2]; 11.5 μM", "result": 38.47, "unit": "%"}, {"measurement": "Relative Free Radical Scavenging Activity (%) on ABTS", "setting": "[2]; 23.0 μM", "result": 43.54, "unit": "%"}, {"measurement": "Relative Free Radical Scavenging Activity (%) on ABTS", "setting": "[2]; 46.0 μM", "result": 89.32, "unit": "%"}, {"measurement": "Relative Free Radical Scavenging Activity (%) on ABTS", "setting": "[2]; 92.5 μM", "result": 95.07, "unit": "%"}]}]}
